For one assay, the target named is BRD4 (His-Brd4(44-477)) (Homo sapiens (Human), UniProt O60885). The assay can be described thus: TR-FRET in-vitro binding assay for BRD4. The note with it: acetyl-histone H4 peptide. The method, then:
All assays were performed in 384 well microtiter plates. Each assay plate contained 8-point serial dilutions for 40 test compounds, plus 16 high- and 16 low controls. Liquid handling and incubation steps were done on an Innovadyne Nanodrop Express equipped with a robotic arm (Thermo CatX, Perkin Elmer/Caliper Twister II) and an incubator (Liconic STX40, Thermo Cytomat 2C450). The assay plates were prepared by addition of 50 nl per well of compound solution in 90% DMSO HummingBird nanodispenser (Zinsser Analytic). […] Reactions were incubated at 30° C. for 35 minutes. […] After 35 minutes incubation at 30° C., plates were measured in a Perkin Elmer EnVision multilabel reader.
Test compounds were dissolved in DMSO (10 mM) and transferred into 1.4 mL flat bottom or V-shaped Matrix tubes carrying a unique 2D matrix. The stock solutions were stored at […] if not used immediately. For the test procedure the vials were defrosted and identified by a scanner whereby a working sheet was generated that guided the subsequent working steps. Compound dilutions were made in 96 well plates. This format enabled the assay of maximally 40 individual test compounds at 8 concentrations (single points) including 4 reference compounds, if desired (known BET inhibitors from the prior art, for this and other assays of the type disclosed herein). The dilution protocol included the production of “pre-dilution plates”, “master plates” and “assay plates”.
Pre-dilution plates: 96 polypropylene well plates were used as pre-dilution plates. A total of 4 pre-dilution plates were prepared including 10 test compounds each on the plate positions A1-A10, one standard compound at A11 and one DMSO control at A12. All dilution steps were done on a HamiltonSTAR robot. […] These plates were used directly for the assay which was performed in a total volume of 13.55 μL. […] Cell Growth Inhibition Assay
In general terms: In TR-FRET formats the signal depends on donor and acceptor labels being close together.

In assay [1] the target is CREBBP bromodomain (His-CREBBP (1081-1197)) (Homo sapiens (Human), UniProt Q92793). Description: AlphaScreen in-vitro binding assay for CREBBP. The note with it: acetyl-histone H4 peptide. A general note: Bead proximity is the source of the signal in Alpha formats.
Sequence of CREBBP bromodomain (His-CREBBP (1081-1197)) (Q92793 1081-1197): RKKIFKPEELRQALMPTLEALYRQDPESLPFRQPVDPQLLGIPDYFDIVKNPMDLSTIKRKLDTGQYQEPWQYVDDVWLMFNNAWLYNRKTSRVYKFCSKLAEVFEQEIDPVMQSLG
A further assay concerns MV-4-11 cells. Description: Cell growth inhibition assay (CellTiter-Glo), MV-4-11. Format: cell-based, human. The note with it: MV-4-11, 4 days; for GI50: Homo sapiens, MV4-11, 96 h, half-maximal growth inhibition; for MV-4-11 TGI: total growth inhibition. The method in brief:
(§1)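 Growth of each leukemia line in its own serum-containing medium was measured by CellTiter-Glo ATP luminescence after 4 days at 37 °C with 3-fold serial dilutions starting at 10 μM (0.1% DMSO). Readings were corrected for background and day 0, scaled so that vehicle is 100% and medium-only is −100%, and 4-parameter fits gave IC50 and TGI.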

Another assay relates to K-562 cells. Description: Cell growth inhibition assay (CellTiter-Glo), K-562. Format: cell-based, human. As to conditions: K-562, 4 days; for GI50: Homo sapiens, K562, 96 h, half-maximal growth inhibition; for K-562 TGI: total growth inhibition. The method in brief: as §1

Molecules are shown by their SMILES.

One may read the IC50 as the concentration that gives 50% inhibition. As a reminder, the GI50 is the concentration that inhibits growth by half. High values mean lower sensitivity of the cells, low ones greater sensitivity of the cells.

As to `COc1ncc(-n2nc3c(c2C)C(=O)N(c2cc(C)c(=O)n(C)c2)C3c2ccc(Cl)cc2)cn1` (stereo not drawn) [Example 21b, 6-(4-chlorophenyl)-5-(1,5-dimethyl-6-oxo-1,6-dihydropyridin-3-yl)-2-(2-methoxypyrimidin-5-yl)-3-methyl-5,6-dihydropyrrolo[3,4-c]pyrazol-4(2H)-one], the IC50 on BRD4 (His-Brd4(44-477)) was found to be 0.11 µM; in assay [1], 4.7 µM. The concentration for 50% growth inhibition (GI50) with MV-4-11 cells turned out to be 0.105 µM; in the assay on K-562 cells, 0.51 µM. The “MV-4-11 TGI” value in the assay with MV-4-11 cells is 0.208 µM. For the same molecule, the “K-562 TGI” value in the assay with K-562 cells was over 10 µM.
For `Cc1cc(N2C(=O)c3c(C4CC4)nn(-c4ccnn4C)c3[C@H]2c2ccc(Cl)cc2)cn(C)c1=O` [Example 22, (R)-6-(4-chlorophenyl)-3-cyclopropyl-5-(1,5-dimethyl-6-oxo-1,6-dihydropyridin-3-yl)-1-(1-methyl-1H-pyrazol-5-yl)-5,6-dihydropyrrolo[3,4-c]pyrazol-4(1H)-one], the 50% inhibitory concentration (IC50) on BRD4 (His-Brd4(44-477)) amounted to 0.14 µM. In assay [1], this molecule came in with an IC50 of 2.9 µM. Further, in the assay with MV-4-11 cells, it took 0.0495 µM to inhibit growth by half (GI50) and the “MV-4-11 TGI” value amounted to 0.08865 µM. Besides, in the assay on K-562 cells, the GI50 was found to be 0.278 µM and the “K-562 TGI” value is over 10 µM.
`Cc1cc(N2C(=O)c3c(C4CC4)n[nH]c3[C@H]2c2ccc(Cl)cc2)cn(C)c1=O` [Example 24, (R)-6-(4-chlorophenyl)-3-cyclopropyl-5-(1,5-dimethyl-6-oxo-1,6-dihydropyridin-3-yl)-5,6-dihydropyrrolo[3,4-c]pyrazol-4(1H)-one] showed a 50% inhibitory concentration (IC50) on BRD4 (His-Brd4(44-477)) of 0.073 µM. The same molecule showed a half-maximal inhibitory concentration (IC50) in assay [1] of 1.7 µM. In the assay with MV-4-11 cells, the GI50 came out at 0.0215 µM and the “MV-4-11 TGI” value worked out at 0.03495 µM. For the same molecule, in the assay with K-562 cells, it took 0.103 µM to inhibit growth by half (GI50) and the “K-562 TGI” value is over 10 µM.
On to `COc1ncccc1-n1nc(C)c2c1[C@@H](c1ccc(Cl)cc1)N(c1cc(C)c(=O)n(C)c1)C2=O` [Example 25, (R)-6-(4-chlorophenyl)-5-(1,5-dimethyl-6-oxo-1,6-dihydropyridin-3-yl)-1-(2-methoxypyridin-3-yl)-3-methyl-5,6-dihydropyrrolo[3,4-c]pyrazol-4(1H)-one], for which the figures for the IC50 (on BRD4 (His-Brd4(44-477)); in assay [1]) were 0.15 µM and 2 µM, respectively. Also, the values for the concentration for 50% growth inhibition (GI50) in the assay with MV-4-11 cells and with K-562 cells were 0.0407 µM and 0.206 µM, respectively. Besides, the “MV-4-11 TGI” value in the assay on MV-4-11 cells is 0.07255 µM. Also, in the assay with K-562 cells, the “K-562 TGI” value was over 10 µM.
Take `COc1ncccc1-n1nc2c(c1C)C(=O)N(c1cc(C)c(=O)n(C)c1)[C@@H]2c1ccc(Cl)cc1` [Example 26, (R)-6-(4-chlorophenyl)-5-(1,5-dimethyl-6-oxo-1,6-dihydropyridin-3-yl)-2-(2-methoxypyridin-3-yl)-3-methyl-5,6-dihydropyrrolo[3,4-c]pyrazol-4(2H)-one]: the values for the half-maximal inhibitory concentration (IC50) (at BRD4 (His-Brd4(44-477)); in assay [1]) were 0.091 µM and 1 µM, respectively. Further, the GI50 came out at 0.0226 µM in the assay on MV-4-11 cells and 0.174 µM with K-562 cells. In the assay with MV-4-11 cells, the “MV-4-11 TGI” value came out at 0.03675 µM. The “K-562 TGI” value with K-562 cells is over 10 µM.
Consider `Cc1[nH]nc2c1C(=O)N(c1cc(Cl)c(=O)n(C)c1)[C@@H]2c1ccc(Cl)cc1` [Example 28, (R)-5-(5-chloro-1-methyl-6-oxo-1,6-dihydropyridin-3-yl)-6-(4-chlorophenyl)-3-methyl-5,6-dihydropyrrolo[3,4-c]pyrazol-4(2H)-one], for which the half-maximal inhibitory concentration (IC50) on BRD4 (His-Brd4(44-477)) came out at 0.16 µM. Moreover, the half-maximal inhibitory concentration (IC50) in assay [1] came to 2.2 µM. In the assay on MV-4-11 cells, the GI50 was 0.0493 µM and the “MV-4-11 TGI” value was found to be 0.0864 µM. In the assay on K-562 cells, the concentration for 50% growth inhibition (GI50) was 0.318 µM and the “K-562 TGI” value is over 10 µM.
